Reference: patent US12295396B2, “Antagonists of T2R54 and compositions and uses thereof” (Firmenich Incorporated, priority 2018, dated 2025)
Like-named read-outs stand apart in the source and are kept apart here. One block for each compound: values may come before it.

Biological target: T1, hT2R54 (Homo sapiens, UniProt P59534)
T1 construct: expressed in transfected cells; it overexpresses a promiscuous G protein
T1 sequence (P59534 1-338): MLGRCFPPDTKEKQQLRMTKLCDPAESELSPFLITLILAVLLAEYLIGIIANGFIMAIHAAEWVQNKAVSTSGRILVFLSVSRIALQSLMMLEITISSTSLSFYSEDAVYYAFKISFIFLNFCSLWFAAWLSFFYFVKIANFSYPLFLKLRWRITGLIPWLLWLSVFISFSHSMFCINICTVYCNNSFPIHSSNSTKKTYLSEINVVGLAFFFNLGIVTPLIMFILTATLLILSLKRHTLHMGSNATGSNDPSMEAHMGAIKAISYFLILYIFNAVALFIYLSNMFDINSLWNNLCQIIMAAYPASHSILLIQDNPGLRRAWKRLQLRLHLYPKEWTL
Assay: Cell-based assay for measuring hT2R54 inhibition (FLIPR calcium, Fluo4AM, acetaminophen as bitter agonist)
Settings: read-out: hT2R54 IC50
Method: Cells stably expressing hT2R54 and a promiscuous G protein were seeded in 384 well plates 24 hours prior to the experiment. Cells were loaded with the calcium indicator Fluo4AM, washed and loaded in a FLIPR instrument with a compound plate containing increasing doses of acetaminophen in quadruplicates and prepared at 2× of final concentration. Baseline was recorded for 10 seconds, then 25 μl of […] was added onto 25 μl of cells and resulting changes in fluorescence were monitored over an additional 3 minutes. The host cell line overexpressing the G protein but not hT2R54 was treated as described above.
The ability of a test compound that blocks bitter taste elicited through hT2R54 was measured in this assay, as follows. Cells stably expressing hT2R54 and a promiscuous G protein were seeded in 384 well plates 24 hours prior to the experiment. Cells were loaded with the calcium indicator Fluo4AM, washed and loaded in a FLIPR instrument with a compound plate containing increasing doses of acetaminophen in buffer and increasing doses of acetaminophen with depicted fixed concentrations of Cmpd 109 (Table 4). Base line was recorded for 10 seconds, then 25 μl of compound and compound mixtures were added onto 25 μl of cells and resulting changes in fluorescence were monitored over an additional 3 minutes. The concentration of test compound that blocks half of the response when the bitter compound alone is present is presented as the EC50 or IC50 value.
In the examples above, the EC50 of compounds for blocking bitter taste elicited through T2R54 was measured in the same manner.

[1] = Table 2, cells stably expressing hT2R54 and a promiscuous G protein
[2] = Table 4, cells stably expressing hT2R54 and a promiscuous G protein
[3] = Table 5, cells stably expressing hT2R54 and a promiscuous G protein
[4] = Table 6, cells stably expressing hT2R54 and a promiscuous G protein

IC50 [1]: 244 nM
Structure (SMILES): CCCC(=O)N1CCN(CC(=O)Nc2cc3c(cc2C(=O)OC)OCO3)CC1 [compound 349]

IC50 (Table 8): 1090 nM
Structure (SMILES): CC(=O)c1cc2c(cc1NC(=O)CC1CCN(C(=O)Cc3ccccc3O)CC1)OCO2 [compound 252]

IC50 [1]: 4 nM
Structure (SMILES): CC(=O)c1cc2c(cc1NC(=O)CN1CCN(C(=O)c3ccco3)CC1)OCO2 [compound 36]

IC50 (Table 8): > 1000 nM
Structure (SMILES): CCCC(=O)N1CCC(CC(=O)Nc2cc3c(cc2C(C)=O)OCO3)CC1 [compound 234]

IC50 [1]: 29 nM
Structure (SMILES): CC(=O)c1cc2c(cc1NC(=O)CN1CCN(C(=O)C3CCCC3)CC1)OCO2 [compound 16]

IC50 (Table 8): 17 nM
Structure (SMILES): CCC(=O)N1CCCC(CC(=O)Nc2cc3c(cc2C(C)=O)OCO3)C1 (stereo not drawn) [compound 203]

IC50 [1]: 261 nM
Structure (SMILES): COCc1nc(C(=O)N2CCN(CC(=O)Nc3cc4c(cc3OC)OCO4)CC2)cs1 [compound 359]

IC50 (Table 9): 454 nM
Structure (SMILES): CC(=O)c1cc2c(cc1NC(=O)Cc1cccnc1)OCO2 [compound 273]

IC50 (Table 8): > 50000 nM
Structure (SMILES): COc1cc2c(cc1NC(=O)CC1CCN(C(=O)c3ccncc3)CC1)OCO2 [compound 501]

IC50 [2]: 439 nM
Structure (SMILES): CC(=O)c1cc2c(cc1NC(=O)CN1CCCCC1)OCO2 [compound 417]

IC50 (Table 8): 4000 nM
Structure (SMILES): COc1cc2c(cc1NC(=O)CC1CCN(C(=O)c3ccc(C)o3)CC1)OCO2 [compound 500]

IC50 [1]: 311 nM
Structure (SMILES): CCOC(=O)N1CCN(CC(=O)Nc2cc3c(cc2C(C)=O)OCO3)CC1 [compound 29]

IC50 (Table 3, cells stably expressing hT2R54 and a promiscuous G protein): 90 nM
Structure (SMILES): COc1ccc(F)cc1CN1CCN(CC(=O)Nc2cc3c(cc2C(C)=O)OCO3)CC1 [compound 105]

IC50 (Table 9): 308 nM
Structure (SMILES): COc1cc2c(cc1NC(=O)CC1CCCC1)OCO2 [compound 520]

IC50 [2]: 322 nM
Structure (SMILES): COc1cc2c(cc1NC(=O)CN1CC(C)OC(C)C1)OCO2 (stereo not drawn) [compound 443]

IC50 (Table 8): 300 nM
Structure (SMILES): CC(=O)c1cc2c(cc1NC(=O)CC1CCN(C(=O)CC3CCCO3)CC1)OCO2 (stereo not drawn) [compound 476]

IC50 (Table 9): 2260 nM
Structure (SMILES): COc1cc2c(cc1NC(=O)CC1CCCCO1)OCO2 (stereo not drawn) [compound 521]

IC50 [2]: ~1000 nM
Structure (SMILES): COC(=O)c1cc2c(cc1NC(=O)CN1CCN(C(=O)OC(C)(C)C)CC1)OCO2 [compound 437]

IC50 [2]: > 10000 nM
Structure (SMILES): CCc1cc2c(cc1NC(=O)CN1CCOCC1)OCO2 [compound 447]

IC50 [2]: 2 nM
Structure (SMILES): COC1CCCN(CC(=O)Nc2cc3c(cc2C(C)=O)OCO3)C1 (stereo not drawn) [compound 123]

IC50 [1]: 402 nM
Structure (SMILES): CC(=O)c1cc2c(cc1NC(=O)CN1CCN(C(=O)c3cccc(CO)c3)CC1)OCO2 [compound 50]

IC50 (Table 8): 1200 nM
Structure (SMILES): COC(=O)c1cc2c(cc1NC(=O)CC1CCCN(C(C)=O)C1)OCCO2 (stereo not drawn) [compound 508]

IC50 [1]: 200 nM
Structure (SMILES): COc1cc2c(cc1NC(=O)CN1CCN(C(=O)c3cc(C)oc3C)CC1)OCO2 [compound 384]

IC50 [1]: 21 nM
Structure (SMILES): COCc1ccc(C(=O)N2CCN(CC(=O)Nc3cc4c(cc3C(C)=O)OCO4)CC2)s1 [compound 289]

IC50 [3]: 114 nM
Structure (SMILES): CC(=O)c1cc2c(cc1NC(=O)CN1CCCC(C(=O)NCc3ccccc3)C1)OCO2 (stereo not drawn) [compound 156]

IC50 [1]: 20 nM
Structure (SMILES): COCc1nc(C(=O)N2CCN(CC(=O)Nc3cc4c(cc3C(C)=O)OCO4)CC2)cs1 [compound 295]

IC50 [1]: 800 nM
Structure (SMILES): CC(=O)c1cc2c(cc1NC(=O)CN1CCN(C(=S)Nc3ccccc3)CC1)OCO2 [compound 310]

IC50 (Table 8): 160 nM
Structure (SMILES): CC(=O)c1cc2c(cc1NC(=O)CC1CCN(C(=O)c3cc(CO)on3)CC1)OCCO2 [compound 490]

Structure (SMILES): COc1cc2c(cc1NC(=O)CN1CCN(C(=O)Cc3ccccc3)CC1)OCO2 [compound 370]
IC50 [1]: 400 nM

IC50 (Table 8): 160 nM
Structure (SMILES): CC(=O)c1cc2c(cc1NC(=O)CC1CCCN(C(=O)OC(C)C)C1)OCO2 (stereo not drawn) [compound 215]

IC50 [1]: 200 nM
Structure (SMILES): CC(=O)c1cc2c(cc1NC(=O)CN1CCN(C(=O)c3nc(C)c[nH]3)CC1)OCCO2 [compound 332]

IC50 [1]: 80 nM
Structure (SMILES): CC(=O)c1cc2c(cc1NC(=O)CN1CCN(C(=O)c3ccccc3O)CC1)OCO2 [compound 40]

IC50 [1]: 60 nM
Structure (SMILES): COCC(=O)N1CCN(CC(=O)Nc2cc3c(cc2C(C)=O)OCO3)CC1 [compound 19]

IC50 (Table 8): > 10000 nM
Structure (SMILES): COc1cc2c(cc1NC(=O)CC1CCN(C(=O)c3nc(C)c[nH]3)CC1)OCO2 [compound 499]

IC50 [1]: 90 nM
Structure (SMILES): CC(=O)c1cc2c(cc1NC(=O)CN1CCN(C(=O)c3n[nH]cc3C)CC1)OCO2 [compound 307]

IC50 (Table 8): 1300 nM
Structure (SMILES): COc1ccccc1CC(=O)N1CCC(CC(=O)Nc2cc3c(cc2C(C)=O)OCO3)CC1 [compound 255]

IC50 [1]: > 10000 nM
Structure (SMILES): CC(=O)c1cc2c(cc1NC(=O)CN1CCN(C(=O)CN3CCCC3)CC1)OCCO2 [compound 345]

IC50 [4]: 264 nM
Structure (SMILES): CC(=O)NC1CCN(CC(=O)Nc2cc3c(cc2C(C)=O)OCO3)CC1 [compound 166, 2-(4-Acetamidopiperidin-1-yl)-N-(6-acetylbenzo[d][1,3]dioxol-5-yl)acetamide]

IC50 (Table 8): 130 nM
Structure (SMILES): CC(=O)c1cc2c(cc1NC(=O)CC1CCCN(C(=O)c3ncc[nH]3)C1)OCO2 (stereo not drawn) [compound 505]

IC50 [1]: 520 nM
Structure (SMILES): CCOC(=O)N1CCN(CC(=O)Nc2cc3c(cc2OC)OCO3)CC1 [compound 83]

IC50 [1]: 1160 nM
Structure (SMILES): COc1cc2c(cc1NC(=O)CN1CCN(C(=O)C3CCCO3)CC1)OCO2 (stereo not drawn) [compound 85]

IC50 [3]: 969 nM
Structure (SMILES): CNC(=O)C1CCCN(CC(=O)Nc2cc3c(cc2OC)OCO3)C1 (stereo not drawn) [compound 453]

IC50 [4]: 310 nM
Structure (SMILES): CCC(=O)NC1CCN(CC(=O)Nc2cc3c(cc2C(C)=O)OCO3)CC1 [compound 167]

IC50 (Table 8): 34 nM
Structure (SMILES): CCOC(=O)N1CCC(CC(=O)Nc2cc3c(cc2C(C)=O)OCO3)CC1 [compound 240]

IC50 [1]: 1510 nM
Structure (SMILES): COc1cc2c(cc1NC(=O)CN1CCN(C(=O)c3ccccn3)CC1)OCO2 [compound 94]

IC50 [2]: 650 nM
Structure (SMILES): CCOC(=O)C1CN(C(=O)OC(C)(C)C)CCN1CC(=O)Nc1cc2c(cc1C(C)=O)OCO2 (stereo not drawn) [compound 428]

IC50 [3]: 406 nM
Structure (SMILES): COc1cc2c(cc1NC(=O)CN(C)CCC(=O)NCc1ccccc1)OCO2 [compound 451]

IC50 [1]: 29 nM
Structure (SMILES): CCCC(=O)N1CCN(CC(=O)Nc2cc3c(cc2C(C)=O)OCO3)CC1 [compound 9]

IC50 (Table 8): 480 nM
Structure (SMILES): CC(=O)c1cc2c(cc1NC(=O)CC1CCCN(C(=O)c3ccccc3O)C1)OCO2 (stereo not drawn) [compound 217]

IC50 [1]: 50 nM
Structure (SMILES): CC(=O)c1cc2c(cc1NC(=O)CN1CCN(C(=O)c3ccn(C)n3)CC1)OCO2 [compound 71]

IC50 [1]: 125 nM
Structure (SMILES): COCc1cccc(C(=O)N2CCN(CC(=O)Nc3cc4c(cc3C(C)=O)OCO4)CC2)n1 [compound 283]

IC50 [4]: 450 nM
Structure (SMILES): CC(=O)c1cc2c(cc1NC(=O)CN1CCC(NC(=O)c3ccncc3)CC1)OCO2 [compound 176]

IC50 [2]: < 1000 nM
Structure (SMILES): CC(=O)c1cc2c(cc1NC(=O)CN1CCN(C(=O)OC(C)(C)C)CC1)OCO2 [compound 129]

IC50 [1]: 1000 nM
Structure (SMILES): CC(=O)c1cc2c(cc1NC(=O)CN1CCN(C(=O)C3CCN(C)C3)CC1)OCO2 (stereo not drawn) [compound 321]

IC50 (Table 8): 2540 nM
Structure (SMILES): CC(=O)c1cc2c(cc1NC(=O)CC1CCN(C(=O)Cc3cccc(F)c3)CC1)OCO2 [compound 249]

IC50 [4]: 455 nM
Structure (SMILES): CC(=O)c1cc2c(cc1NC(=O)CN1CCC(N(C)C(=O)c3cccnc3)CC1)OCO2 [compound 182]

IC50 [4]: 140 nM
Structure (SMILES): CC(=O)c1cc2c(cc1NC(=O)CN1CCC(NC(=O)CC(C)C)CC1)OCO2 [compound 169]

IC50 [2]: 187 nM
Structure (SMILES): CC(=O)c1cc2c(cc1NC(=O)CN1CCC(=O)CC1)OCO2 [compound 421]

IC50 [1]: 30 nM
Structure (SMILES): CC(=O)c1cc2c(cc1NC(=O)CN1CCN(C(=O)c3cn(C)nn3)CC1)OCO2 [compound 78]

IC50 [2]: 61 nM
Structure (SMILES): CCOC(=O)C1CCN(CC(=O)Nc2cc3c(cc2C(C)=O)OCO3)C1 (stereo not drawn) [compound 114, Ethyl 1-(2-((6-acetylbenzo[d][1,3]dioxol-5-yl)amino)-2-oxoethyl)pyrrolidine-3-carboxylate]
